Experiments:
Type in all cases: cell-based, mouse
[1] = test system: choline mobilization via the Kennedy pathway; assay: Choline, phosphocholine and phosphatidylcholine content of LPS-stimulated BMDM (NMR, MS); settings: RSM932A-pretreated BMDM, LPS 4 hr
Method: Choline and Phosphocholine Analysis by NMR—BMDM were treated with LPS for 4 hr and then were collected and processed for NMR analysis as described (Guma et al., 2015a; Tiziani et al., 2009). Polar metabolite isolation was performed using a modified Bligh-Dyer procedure (Wu et al., 2008). Extracts were dried using a CentriVap refrigerated vacuum concentrator (Labconco, Kansas City, MO, USA). Dried extracts were reconstituted in 100 mM phosphate buffer (pH 7.0) prepared in 10% H2O/90% D2O (Sigma) that contained 0.5 mM sodium 3-(trimethylsilyl)propionate-2,2,3,3,-d4 (TMSP) as the internal standard. One-dimensional ^1H NMR spectra were acquired on a Bruker Avance III 500 MHz with 1.7 mm TCI MicroCryoProbe system (Bruker BioSpin Corp., Billerica, MA) equipped with an autosampler at 300 K and processed as previously described (Lodi et al., 2017; Lu et al., 2017; Ludwig and Gunther, 2011). Metabolite assignment and quantification were performed using the Chenomx 8.2 NMR Suite (Chenomx Inc., Edmonton, Alberta, Canada), the Birmingham Metabolite Library (Ludwig et al., 2012), and the Human Metabolome Database (Wishart et al., 2012).
Total phosphatidylcholine and mitochondrial lipids analysis by mass spectrometry—Total phosphatydilcholine (PC) analysis was measured in RSM932A-pretreated BMDM stimulated with LPS for 4 hr, while mitochondrial lipids were measured in mitochondria isolated from BMDM cultured in control or choline deficient medium and subjected to different treatments for 24 hr. Samples were processed for UHPLC-MS/MS analysis and analysis was performed on a hybrid quadrupole-Orbitrap mass spectrometer (Q Exactive, Thermo Scientific, Bremen, Germany) coupled to an Accela 1250 UHPLC system equipped with a quaternary pump, vacuum degasser, and open autosampler with temperature controller (6° C.; Fisher Scientific, San Jose, CA, USA). […]

caspase-1 = assay: Caspase-1 activation in LPS-primed, ATP-treated BMDM (immunoblot); settings: ATP-treated BMDM pretreated with RSM932A
Method: Macrophage culture and stimulation—Femurs and tibias from C57BL/6 mice, Ampkα1^−/− mice, and Il10rb^−/− mice at 6-10 weeks of age were used to generate bone-marrow-derived macrophages (BMDM) as described (Hornung et al., 2008). Macrophages were cultured in DMEM supplemented with 10% FBS, 20% L929-cell conditioned medium, and 100 U/ml penicillin-streptomycin for 7-10 days. Bone marrow was isolated from MWS Nlrp3^A350VneoRCreT, FCAS Nlrp3^L351PneoCreT and NOMID Nlrp3^D301NneoCreT conditional knock-in mice (Bonar et al., 2012; Brydges et al., 2009), and were allowed to differentiate over 7 days with addition of fresh mouse recombinant GMCSF every three days. (Z)-4-hydroxitamoxifen at 0.4 μg/ml was added to cells 24 hr prior to treatment to induce the mutant Nlrp3 allele. Immortalized mouse BMDM were grown in DMEM supplemented with 10% FBS and 100 U/ml penicillin-streptomycin. All cells were grown at 37° C. with 5% CO2. […]
Protein Immunoblotting and ELISA—Mitochondria were isolated using Mitochondria Isolation kit. Whole cell lysates were prepared in NP40 buffer containing a protease inhibitor cocktail and a phosphatase inhibitor cocktail, and supernatants were analyzed by SDS-PAGE. […]

[2] = test system: NLRP3 inflammasome components; assay: Immunoblot of NLRP3 inflammasome components in BMDM; settings: BMDM pretreated with RSM932A
Method: Protein Immunoblotting and ELISA—Mitochondria were isolated using Mitochondria Isolation kit. Whole cell lysates were prepared in NP40 buffer containing a protease inhibitor cocktail and a phosphatase inhibitor cocktail, and supernatants were analyzed by SDS-PAGE. Proteins were transferred into PVDF membranes, blocked in 5% BSA and 1×TBST for 1 hr, and incubated with indicated antibodies overnight. Secondary antibodies were added for 1 hr and detection was done using CLARITY™ Western ECL Substrate (Biorad). Paired antibodies (capture and detection) and standard recombinant mouse IL-1β (R&D Systems), and TNF and IL-6 (eBioscience) were used to determine cytokine concentrations according to manufacturer's instructions.

BMDM = assay: Cytosolic mtDNA (QPCR); settings: RSM932A-pretreated BMDM, LPS-primed, ATP or nigericin
Method: Cellular fractionation and measurement of cytosolic mtDNA—BMDM were primed with LPS and stimulated with an NLRP3 inflammasome activator. Cellular fractionation was performed using Mitochondrial Isolation kit (ThermoScientific) according to manufacturer's instructions. Cytosolic mtDNA was analyzed as described (Nakahira et al., 2011). Briefly, DNA was isolated from 300 μl of the cytosolic fractions using All Prep DNA/RNA kit, and mitochondrial DNA encoding cytochrome c oxidase 1 and D-Loop were measured by QPCR with an equal volume of the DNA solution. Nuclear DNA encoding 18S ribosomal RNA and Tert was used for normalization. Primer sequences were obtained from the NIH qPrimerDepot (mouseprimerdepot.nci.nih.gov) and provided by Integrated DNA Technologies, as set forth below.

caspase-1 activation (caspase-1): inhibited
expression of NLRP3 inflammasome components (caspase-1, NLRP3, ASC, pro-IL-1β induced by LPS) [2]: did not alter
Compound: C/[N+](c1ccc(Cl)cc1)=c1\ccn(Cc2ccc(-c3ccc(Cn4cc/c(=[N+](/C)c5ccc(Cl)cc5)c5ccccc54)cc3)cc2)c2ccccc12 [RSM932A]
LPS-induced increase in cellular content of phosphocholine, glycerol-3-phosphocholine and phosphatidylcholine (PC) [1]: blocked
amount of cytosolic mtDNA (BMDM): reduced

From patent US12458659B2, “Methods for treating macrophage-mediated diseases, and methods of identifying agents useful therefore” (The Regents of the University of California, priority 2019, dated 2025)
